Test system: gray mold fungus (Botrytis cinerea)
Experiment: Cucumber leaf disk preventive test against gray mold fungus
Assay type: in vivo
Conditions: 15° C., four days
Experimental: True leaf of cucumber is punched out with cork borer to 13 mm in diameter to prepare a leaf disk. In 24 well microwell plate that is dispensed with 1 ml 0.8% water agar, the leaf disk is placed such that the upper side of the leaf is in an upward direction. Thereto is added 20 micro liter a testing solution prepared by mixing a dimethyl sulfoxide solution of the present compound (racemate) and a dimethyl sulfoxide solution of flutolanil to a predetermined concentration to treat the leaf disk. After confirming that the testing medical solution is dried, conidium of gray mold fungus (Botrytis cinerea) is suspended into potato dextrose broth (DIFCO) in a density of about 10^5 conidium/mL and is then subjected to a spray inoculation. After leaving to stand the leaf disk in a growth chamber set up at 15° C. for four days, an onset area on the leaf is measured and then calculated an onset area rate (hereinafter, referred to as an onset area rate of treated group). The same operation is carried out with 20 micro liter water instead of 20 micro liter a testing medicine solution to calculate an onset area rate (hereinafter, referred to an onset area rate of non-treated group). A preventive value is calculated from the above onset area rate of treated group and the onset area rate of non-treated group by the following equation: Preventive value(%)=100×(A−B)/A wherein […] The same operations as described in Test Example 1 are carried out with zoxamide instead of flutolanil, so as to calculate a preventive value. Also for comparison, the same operations as described in Test Example 1 are carried out with the exception that the testing medicine solution is substituted with a predetermined concentration of each dimethyl sulfoxide solution of the present compound (racemate) or zoxamide, so as to calculate respective preventive values. For comparison, the same operations as described in Test Example 1 are carried out with the exception that the testing medicine solution is substituted with a predetermined concentration of a dimethyl sulfoxide solution of flutolanil, so as to calculate a preventive value.

Compound	preventive value (%) (flutolanil alone 0.5 ppm)	preventive value (%) (flutolanil alone 5.0 ppm)	preventive value (%) (zoxamide alone 0.5 ppm)	preventive value (%) (zoxamide alone 5.0 ppm)
CC(C)Oc1cccc(NC(=O)c2ccccc2C(F)(F)F)c1 [flutolanil]	10	15	–	–
CCC(C)(NC(=O)c1cc(Cl)c(C)c(Cl)c1)C(=O)CCl (stereo not shown) [zoxamide]	–	–	10	15

Reference: patent US8940795B2, “Plant disease controlling composition and method for controlling plant disease” (Sumitomo Chemical Company, Limited, priority 2010, dated 2015)
